Experimental findings from US10844051B2, “Substituted oxazoles for the treatment of cancer” (THE ROYAL INSTITUTION FOR THE ADCANCEMENT OF …, priority 2015, dated 2020) are described below.

The first assay has as its system hSTING and/or mSTING. Nature of the assay: hSTING- or mSTING-dependent ISRE-luc reporter assay in 293T cells. Format: cell-based. As to conditions: 24 hours. The method, then:
ISRE-luc (reporter), pRL-TK (internal control) and hSTING- or mSTING-expressing plasmids were transiently transfected into 293T cells. Cells were exposed to DMSO vehicle control or compounds for 24 hours. Experiments were done in triplicate.
Consider `COc1ccc2[nH]cc(CCN(Cc3nc(-c4cccc(F)c4)c(-c4cccc(F)c4)[nH]3)S(=O)(=O)c3ccccc3[N+](=O)[O-])c2c1` [Compound 1039], for which the “activation of hSTING and/or mSTING in ISRE-luc reporter assay” value (from here on “activation of hSTING and/or mSTING”) is on record as “activate hSTING and/or mSTING”. Same read-out and setting: in the case of `O=[N+]([O-])c1ccccc1S(=O)(=O)N(Cc1ccc2[nH]ccc2c1)Cc1nc(-c2cccc(F)c2)c(-c2cccc(F)c2)[nH]1` [Compound 1040] it was “activate hSTING and/or mSTING”. On the same count and under the same terms, in the case of `COc1ccc2[nH]cc(CCNCc3nc(-c4cccc(F)c4)c(-c4cccc(F)c4)[nH]3)c2c1` [Compound 1041] it was “activate hSTING and/or mSTING”; in that of `Fc1cccc(-c2nc(CNCc3ccc4[nH]ccc4c3)[nH]c2-c2cccc(F)c2)c1` [Compound 1042], “activate hSTING and/or mSTING”. On the same count and under the same terms, in the case of `Cn1cc(CNCc2nc(-c3cccc(F)c3)c(-c3cccc(F)c3)[nH]2)c2ccccc21` [Compound 1096] it was “activate hSTING and/or mSTING”. On to `Brc1ccc(N2CCN(Cc3nc(-c4ccccc4)c(-c4ccccc4)o3)CC2)cc1` [Compound 1097], for which the “activation of hSTING and/or mSTING” value is reported as “activate hSTING and/or mSTING”. Still for that read-out and setting: in the case of `Clc1ccc(N2CCN(Cc3nc(-c4ccccc4)c(-c4ccccc4)[nH]3)CC2)cc1Cl` [Compound 1098] it was “activate hSTING and/or mSTING”; in that of `c1ccc(-c2nc(CN3CCN(c4ccccc4)CC3)[nH]c2-c2ccccc2)cc1` [Compound 1099], “activate hSTING and/or mSTING”. Same read-out and setting: in the case of `OC1(c2ccccc2)CCN(Cc2nc(-c3ccccc3)c(-c3ccccc3)o2)CC1` [Compound 1103] it was “activate hSTING and/or mSTING”; in that of `N#Cc1ccc(N2CCN(Cc3nc(-c4cccc(F)c4)c(-c4cccc(F)c4)[nH]3)CC2)cc1` [Compound 1104], “activate hSTING and/or mSTING”. As for `N#Cc1ccc(N2CCN(Cc3nc(-c4ccccc4)c(-c4ccccc4)[nH]3)CC2)cc1` [Compound 1120], the “activation of hSTING and/or mSTING” value is “activate hSTING and/or mSTING”. The same measure, in the same setting: in the case of `O=C(c1ccccc1)N1CCN(Cc2nc(-c3cccc(F)c3)c(-c3cccc(F)c3)[nH]2)CC1` [Compound 1121] it was “activate hSTING and/or mSTING”; in that of `O=C(c1ccccc1)N1CCN(Cc2nc(-c3ccccc3)c(-c3ccccc3)[nH]2)CC1` [Compound 1122], “activate hSTING and/or mSTING”. Same read-out and setting: in the case of `O=C(c1ccccc1)N1CCN(Cc2nc(-c3ccccc3)c(-c3ccccc3)o2)CC1` [Compound 1123] it was “activate hSTING and/or mSTING”. On the same count and under the same terms, in the case of `c1ccc(-c2nc(CN3CCC(c4c[nH]c5ccccc45)CC3)oc2-c2ccccc2)cc1` [Compound 1124] it was “activate hSTING and/or mSTING”; in that of `O=C(c1ccco1)N1CCN(Cc2nc(-c3ccccc3)c(-c3ccccc3)[nH]2)CC1` [Compound 1125], “activate hSTING and/or mSTING”.

As to `O=C(c1ccco1)N1CCN(Cc2nc(-c3ccccc3)c(-c3ccccc3)o2)CC1` [Compound 1126], the “activation of hSTING and/or mSTING” value is recorded as “activate hSTING and/or mSTING”. On the same count and under the same terms, in the case of `OC1(c2cccc(C(F)(F)F)c2)CCN(Cc2nc(-c3ccccc3)c(-c3ccccc3)o2)CC1` [Compound 1127] it was “activate hSTING and/or mSTING”. Still for that read-out and setting: in the case of `OC1(c2cccc(C(F)(F)F)c2)CCN(Cc2nc(-c3ccccc3)c(-c3ccccc3)[nH]2)CC1` [Compound 1129] it was “activate hSTING and/or mSTING”. In the case of `Fc1cccc(-c2nc(CN3CCC(c4c[nH]c5ccccc45)CC3)[nH]c2-c2cccc(F)c2)c1` [Compound 1137], the “activation of hSTING and/or mSTING” value was “activate hSTING and/or mSTING”. Still for that read-out and setting: in the case of `Oc1ccc(N2CCN(Cc3nc(-c4cccc(F)c4)c(-c4cccc(F)c4)[nH]3)CC2)cc1` [Compound 1139] it was “activate hSTING and/or mSTING”. The same measure, in the same setting: in the case of `CNC(=O)c1ccc(C2CCN(Cc3nc(-c4cccc(F)c4)c(-c4cccc(F)c4)[nH]3)CC2)cc1` [Compound 1140] it was “activate hSTING and/or mSTING”. Still for that read-out and setting: in the case of `COc1cccc(N2CCN(Cc3nc(-c4cccc(F)c4)c(-c4cccc(F)c4)[nH]3)CC2)c1` [Compound 1141] it was “activate hSTING and/or mSTING”. As for `COc1cccc(N2CCN(Cc3nc(-c4ccccc4)c(-c4ccccc4)o3)CC2)c1` [Compound 1142], the “activation of hSTING and/or mSTING” value is given as “activate hSTING and/or mSTING”. Turning to `COc1cccc(N2CCN(Cc3nc(-c4ccccc4)c(-c4ccccc4)[nH]3)CC2)c1` [Compound 1143], the “activation of hSTING and/or mSTING” value is listed as “activate hSTING and/or mSTING”. Same read-out and setting: in the case of `N#CCN(CCc1c[nH]c2ccccc12)Cc1nc(-c2ccccc2)c(-c2ccccc2)o1` [Compound 1188] it was “activate hSTING and/or mSTING”; in that of `c1ccc(-c2nc(CN3CCN(Cc4ccccn4)CC3)oc2-c2ccccc2)cc1` [Compound 1285], “activate hSTING and/or mSTING”.

In the case of `Fc1cccc(CN2CCN(Cc3nc(-c4ccccc4)c(-c4ccccc4)o3)CC2)c1` [Compound 1286], the “activation of hSTING and/or mSTING” value was “activate hSTING and/or mSTING”.

With `COc1ccc(CN2CCN(Cc3nc(-c4ccccc4)c(-c4ccccc4)o3)CC2)cc1` [Compound 1287], the “activation of hSTING and/or mSTING” value was “activate hSTING and/or mSTING”.

Take `Fc1ccc(CN2CCN(Cc3nc(-c4ccccc4)c(-c4ccccc4)o3)CC2)cc1` [Compound 1288]: the “activation of hSTING and/or mSTING” value was “activate hSTING and/or mSTING”.

Turning to `COc1cccc(CN2CCN(Cc3nc(-c4ccccc4)c(-c4ccccc4)o3)CC2)c1` [Compound 1289], the “activation of hSTING and/or mSTING” value is reported as “activate hSTING and/or mSTING”. Still for that read-out and setting: in the case of `Fc1ccccc1CN1CCN(Cc2nc(-c3ccccc3)c(-c3ccccc3)o2)CC1` [Compound 1357] it was “activate hSTING and/or mSTING”.

The same assay, now with this note: 24 hours, 10 μM.
Take `FC(F)(F)c1cccc(CCc2nc(-c3ccccc3)c(-c3ccccc3)o2)c1` [Compound 1011]: the “activation of hSTING and/or mSTING” value was “activate hSTING and/or mSting”. In the case of `Fc1cccc(-c2nc(/C=C/c3cc(C(F)(F)F)cc(C(F)(F)F)c3)oc2-c2cccc(F)c2)c1` [Compound 1012], the “activation of hSTING and/or mSTING” value is recorded as “activate hSTING and/or mSting”. Same read-out and setting: in the case of `Fc1cccc(-c2nc(/C=C/c3cccs3)oc2-c2cccc(F)c2)c1` [Compound 1013] it was “activate hSTING and/or mSting”. Still for that read-out and setting: in the case of `COc1cccc(-c2nc(CCc3cc(C(F)(F)F)cc(C(F)(F)F)c3)oc2-c2cccc(OC)c2)c1` [Compound 1033] it was “activate hSTING and/or mSting”.

As to `Fc1cccc(-c2nc(/C=C/c3ccoc3)oc2-c2cccc(F)c2)c1` [Compound 1035], the “activation of hSTING and/or mSTING” value is recorded as “activate hSTING and/or mSting”. For `Fc1cccc(-c2nc(/C=C/c3ccsc3)oc2-c2cccc(F)c2)c1` [Compound 1036], the “activation of hSTING and/or mSTING” value was “activate hSTING and/or mSting”.

As for `Fc1cccc(-c2nc(/C=C/c3ccsc3)[nH]c2-c2cccc(F)c2)c1` [Compound 1037], the “activation of hSTING and/or mSTING” value is on record as “activate hSTING and/or mSting”.

In the case of `Fc1cccc(-c2nc(CN3CCC(c4cccc(C(F)(F)F)c4)CC3)[nH]c2-c2cccc(F)c2)c1` [Compound 1173], the “activation of hSTING and/or mSTING” value was “activate hSTING and/or mSTING”. Still for that read-out and setting: in the case of `Fc1cccc(-c2nc(CN3CCN(c4ccc(Br)cc4)CC3)[nH]c2-c2cccc(F)c2)c1` [Compound 1174] it was “activate hSTING and/or mSTING”; in that of `Fc1cccc(-c2nc(CN3CCN(Cc4ccccc4)CC3)[nH]c2-c2cccc(F)c2)c1` [Compound 1175], “activate hSTING and/or mSTING”. The same measure, in the same setting: in the case of `O=C(c1cccc(F)c1)N1CCN(Cc2nc(-c3cccc(F)c3)c(-c3cccc(F)c3)[nH]2)CC1` [Compound 1177] it was “activate hSTING and/or mSTING”; in that of `O=C(c1ccccc1F)N1CCN(Cc2nc(-c3cccc(F)c3)c(-c3cccc(F)c3)[nH]2)CC1` [Compound 1178], “activate hSTING and/or mSTING”; in that of `O=C(c1ccc(F)cc1)N1CCN(Cc2nc(-c3cccc(F)c3)c(-c3cccc(F)c3)[nH]2)CC1` [Compound 1179], “activate hSTING and/or mSTING”.

Staying with this assay, now noted: 24 hours, 20 μM.
Consider `O=C(c1cccc(F)c1)N1CCN(Cc2nc(-c3ccccc3)c(-c3ccccc3)o2)CC1` [Compound 1180], for which the “activation of hSTING and/or mSTING” value is on record as “activate hSTING and/or mSTING”. On the same count and under the same terms, in the case of `Oc1cccc(N2CCN(Cc3nc(-c4cccc(F)c4)c(-c4cccc(F)c4)[nH]3)CC2)c1` [Compound 1181] it was “activate hSTING and/or mSTING”. Still for that read-out and setting: in the case of `Oc1cccc(N2CCN(Cc3nc(-c4ccccc4)c(-c4ccccc4)o3)CC2)c1` [Compound 1182] it was “activate hSTING and/or mSTING”. Turning to `Oc1ccccc1N1CCN(Cc2nc(-c3cccc(F)c3)c(-c3cccc(F)c3)[nH]2)CC1` [Compound 1183], the “activation of hSTING and/or mSTING” value is “activate hSTING and/or mSTING”. Still for that read-out and setting: in the case of `Oc1ccccc1N1CCN(Cc2nc(-c3ccccc3)c(-c3ccccc3)o2)CC1` [Compound 1184] it was “activate hSTING and/or mSTING”.

On to `c1ccc(-c2nc(CN3CCN(c4ccccn4)CC3)oc2-c2ccccc2)cc1` [Compound 1227], for which the “activation of hSTING and/or mSTING” value was “activate hSTING and/or mSTING”.
